Laboratory results published in BindingDB's records for doi:10.1016/j.bmc.2018.06.012 (Astellas Pharma, 2018).

Test: Inhibition of PI3Kdelta in Balb/c mouse splenocytes-derived B cells assessed as reduction in anti-IgM antibody-stimulated B cell proliferation after 2 days alamar blue assay

Row | IC50 [nM] | SMILES
1 | 2.6 | COc1ncc(-c2cc(O[C@@H]3CCN(C(=O)C4CCOCC4)C3)c3cnn(C)c3n2)cc1NS(C)(=O)=O
2 | 0.41 | COc1ncc(-c2cc(OC[C@@H]3CCCN(CCC4CCOCC4)C3)c3cnn(C)c3n2)cc1NS(C)(=O)=O
3 | 20 | COc1ncc(-c2cc(OC3CN(C(=O)C4CCOCC4)C3)c3cnn(C)c3n2)cc1NS(C)(=O)=O
4 | 4.8 | COc1ncc(-c2cc(OC[C@@H]3CCCN(Cc4cn(C)nc4C)C3)c3cnn(C)c3n2)cc1NS(C)(=O)=O
5 | 2.9 | COc1ncc(-c2cc(OC[C@@H]3CCCN(C(=O)CC4CCOC4)C3)c3cnn(C)c3n2)cc1NS(C)(=O)=O (some centres not stated)
6 | 0.29 | COc1ncc(-c2cc(OC[C@@H]3CCCN(CC4CCOCC4)C3)c3cnn(C)c3n2)cc1NS(C)(=O)=O

Continued, compound first:

Row | SMILES | IC50 [nM]
7 | COc1ncc(-c2cc(O[C@@H]3CCN(Cc4c(C)nn(C)c4C)C3)c3cnn(C)c3n2)cc1NS(C)(=O)=O | 2.1
8 | COc1ncc(-c2cc(OC[C@@H]3CCCN(Cc4c(C)nn(C)c4C)C3)c3cnn(C)c3n2)cc1NS(C)(=O)=O | 1.5
9 | COc1ncc(-c2cc(OC[C@@H]3CCCN(CC4(C)COC4)C3)c3cnn(C)c3n2)cc1NS(C)(=O)=O | 1.5
10 | COc1ncc(-c2cc(OC[C@@H]3CCCN(C(=O)C4CCN(C(C)=O)CC4)C3)c3cnn(C)c3n2)cc1NS(C)(=O)=O | 4.3
11 | COc1ncc(-c2cc(OC[C@@H]3CCCN(C(=O)C4CCOCC4)C3)c3cnn(C)c3n2)cc1NS(C)(=O)=O | 1.4
12 | COc1ncc(-c2cc(OC[C@H]3CCCN(C(=O)C4CCOCC4)C3)c3cnn(C)c3n2)cc1NS(C)(=O)=O | 7.8
